What was measured:
Format in all cases: cell-based, human
[1] = system: latex specific T cell lines; assay: Oligoclonal T cell proliferation assay (3H-thymidine incorporation); design: key to Proliferation inducing (+) or non-inducing (−) peptide: Proliferation inducing and non-inducing peptides are indicated by (+) and (−) respectively; Proliferation inducing and non-inducing peptides are indicated by (+) and (−) respectively; conditions: for Oligoclonal proliferative response: 4 day cultures
Method: Latex specific T cell lines were isolated using our well established methods for the generation of allergen specific oligoclonal T cell populations (O'Hehir et al., 1987). An initial primary culture was performed for each patient to determine the optimal concentration of LAL for stimulation. For this, peripheral blood mononuclear cells (PBMC) separated from heparinised venous blood by density centrifugation (2×10^5/well) were stimulated with LAL over a concentration range 0.03 to 100 μg/ml, with control cultures of PBMC alone or stimulated with tetanus toxoid. All cultures were maintained in complete medium (RPMI-1640, Gibco Life Technologies supplemented with 2 mmol/L L-glutamine, 100 IU/ml penicillin-streptomycin and 5% screened, heat inactivated human AB serum [Sigma]). […] Therefore, to generate T cell lines, PBMC (2.5×10^6/well) were stimulated for 1 week with LAL at a concentration of 20 μg/ml in 24-well tissue culture plates (Costar, USA). After 7 days, lymphoblasts (1×10^6/well) were restimulated for one week with LAL at a concentration of 20 μg/ml in the presence of an equal number of irradiated (3000 rad) autologous PBMC as antigen presenting cells (APC). On days 2 and 4, cultures were supplemented with Lymphocult-T (5% v/v; Biotest Folex, Germany) and fresh medium. At the end of the second week, lymphoblasts were restimulated for one week with rhev b 5/MBP at a concentration of 20 μg/ml as described above. Oligoclonal T cells were recovered, washed and tested in proliferation and cytokine assays (as described below) either fresh or after cryopreservation in liquid nitrogen. We have previously shown that CD4^+ T cells are preferentially expanded in these cultures.
Oligoclonal T cell blasts (5×10^4) were incubated in 96-well round bottom plates (Linbro, ICN Biomedicals, USA) in triplicate with equal numbers of irradiated APC in the presence of LAL at concentrations ranging from 0.03-100 μg/ml, rHev b 5/MBP (10 and 20 μg/ml), MBP (10 and 20 μg/ml), overlapping peptides of the Hev b 5 sequence (10 and 30 μg/ml), Lymphocult-T (10 IU/ml) or PHA (3 μg/ml). Cultures of T cells and APC in the absence of antigen, T cells alone and APC alone in the absence of antigen were included as controls. After 72 hours cultures were pulsed with 1 μCi of ^3H-thymidine (^3HTdR; Du Pont, NEN) and harvested 12-16 hours later. Proliferation as correlated with ^3HTdR incorporation was measured by liquid scintillation spectroscopy. Results are expressed as mean counts per minute (cpm) for triplicate cultures with standard deviation (SD; ±20% for all experiments).

IL-5 = IL-5 production by latex specific oligoclonal T cells (ELISA on culture supernatants); conditions: for IL-5: supernatant at 48 hours; for secretion of IL-5 (in words): patient 4 T cell line
Method: (§1) Representative stimulatory and non-stimulatory peptides were selected and T cells cultured in triplicate with these peptides. At 48 hours 50 μl of supernatant was harvested from the cultures and IL-5 and IFNγ were assayed by ELISA using paired cytokine antibodies (from Pharmingen Becton Dickinson, USA and Endogen, USA respectively). For this, opaque flat bottom ELISA plates (Nalgene, Nunc International) were coated with 30 μl capture antibody at 2 μg/ml in 0.1 M NaHCO3 pH 8.2 coating buffer overnight at 4° C. After washing three times with PBS/0.5% Tween the wells were blocked with 3% BSA/PBS at room temperature for 2 hours. The plates were washed and 30 μL pooled triplicate culture supernatants added in duplicate. […] Light emission was read immediately on a Lumicount microplate Glow Luminometer (Packard Instrument Company). A standard curve was run each time using known concentrations of standard cytokine samples and the concentrations of IL-S and IFNγ in the culture supernatants calculated accordingly. The lower limit of detection of the IL-5 assay was 20 pg/ml and the lower limit of detection of the IFN-γ assay was 2 pg/ml.

IFNγ = IFNγ production by latex specific oligoclonal T cells (ELISA on culture supernatants); conditions: supernatant at 48 hours
Method: as §1

[2] = P1 T cell line, antigen 10 μg/ml
[3] = P1 T cell line, antigen 30 μg/ml
[4] = P2 T cell line, antigen 10 μg/ml
[5] = P2 T cell line, antigen 30 μg/ml
[6] = P3 T cell line, antigen 10 μg/ml
[7] = P3 T cell line, antigen 30 μg/ml
[8] = P4 T cell line, antigen 10 μg/ml
[9] = P4 T cell line, antigen 30 μg/ml
[10] = P5 T cell line, antigen 10 μg/ml
[11] = P5 T cell line, antigen 30 μg/ml
[12] = P6 T cell line, antigen 10 μg/ml
[13] = P6 T cell line, antigen 30 μg/ml
[14] = P1 T cell line, peptide 10 μg/ml
[15] = P1 T cell line, peptide 30 μg/ml
[16] = P2 T cell line, peptide 10 μg/ml
[17] = P2 T cell line, peptide 30 μg/ml
[18] = P4 T cell line, peptide 10 μg/ml
[19] = P4 T cell line, peptide 30 μg/ml
[20] = P3 T cell line, peptide 10 μg/ml
[21] = P3 T cell line, peptide 30 μg/ml

| Sequence | Oligoclonal proliferative response [1, 2] [counts per minute × 10^−3] | Oligoclonal proliferative response [1, 3] [counts per minute × 10^−3] | Oligoclonal proliferative response [1, 4] [counts per minute × 10^−3] | Oligoclonal proliferative response [1, 5] [counts per minute × 10^−3] | Oligoclonal proliferative response [1, 6] [counts per minute × 10^−3] | Oligoclonal proliferative response [1, 7] [counts per minute × 10^−3] | Oligoclonal proliferative response [1, 8] [counts per minute × 10^−3] | Oligoclonal proliferative response [1, 9] [counts per minute × 10^−3] | Oligoclonal proliferative response [1, 10] [counts per minute × 10^−3] | Oligoclonal proliferative response [1, 11] [counts per minute × 10^−3] | Oligoclonal proliferative response [1, 12] [counts per minute × 10^−3] | Oligoclonal proliferative response [1, 13] [counts per minute × 10^−3] | IL-5 (IL-5; [14]) [pg/mL] | IL-5 (IL-5; [15]) [pg/mL] | IL-5 (IL-5; [16]) [pg/mL] | IL-5 (IL-5; [17]) [pg/mL] | IL-5/IFNγ ratio (IL-5; [18]) | IL-5 (IL-5; [18]) [pg/mL] | IL-5/IFNγ ratio (IL-5; [19]) | IL-5 (IL-5; [19]) [pg/mL] | also measured |
| --- | --- | --- | --- | --- | --- | --- | --- | --- | --- | --- | --- | --- | --- | --- | --- | --- | --- | --- | --- | --- | --- |
| AEEEKPITEAAETATTEVPV [Hev b 5 (127-146)] | 3.3 | 4.4 | 3.8 | 6.6 | 7.1 | 8.3 | 2.2 | 1.6 | 2.7 | 2.5 | 1.0 | 0.8 | – | – | – | – | – | – | – | – | – |
| APAEPEAPAPETEKAEEVEK [Hev b 5 (55-74)] | 5.0 | 7.7 | 2.8 | 5.6 | 9.1 | 8.2 | 2.0 | 2.8 | 1.1 | 0.7 | 0.7 | 0.9 | 0 | 0 | 0 | 0 | 70 | 70 | 199 | 199 | secretion of IL-5 (in words) (IL-5): secretion of IL-5; Proliferation inducing (+) or non-inducing (−) peptide ([1]; P1 T cell line): 55-74 (−); Proliferation inducing (+) or non-inducing (−) peptide ([1]; P2 T cell line): 55-74 (−); Proliferation inducing (+) or non-inducing (−) peptide ([1]; P4 T cell line): 55-74 (+); IFNγ (IFNγ; [14]): 0 pg/mL; IFNγ (IFNγ; [15]): 0 pg/mL; IFNγ (IFNγ; [16]): 2 pg/mL; IFNγ (IFNγ; [17]): 4 pg/mL; IFNγ (IFNγ; [18]): 0 pg/mL; IFNγ (IFNγ; [19]): 0 pg/mL |
| ASEQETADATPEKEEPTAAP [Hev b 5 (37-56)] | 7.1 | 8.5 | 18.3 | 38.8 | 8.8 | 2.7 | 3.0 | 3.2 | 1.4 | 1.1 | 1.4 | 0.9 | 0 | 0 | 744 | 767 | 173 | 173 | 49.3 | 296 | IL-5/IFNγ ratio (IL-5; [16]): 10.1; IL-5/IFNγ ratio (IL-5; [17]): 10; secretion of IL-5 (in words) (IL-5): secretion of IL-5; Proliferation inducing (+) or non-inducing (−) peptide ([1]; P1 T cell line): 37-56 (−); Proliferation inducing (+) or non-inducing (−) peptide ([1]; P2 T cell line): 37-56 (+); Proliferation inducing (+) or non-inducing (−) peptide ([1]; P4 T cell line): 37-56 (+); IFNγ (IFNγ; [14]): 0 pg/mL; IFNγ (IFNγ; [15]): 0 pg/mL; IFNγ (IFNγ; [16]): 74 pg/mL; IFNγ (IFNγ; [17]): 77 pg/mL; IFNγ (IFNγ; [18]): 0 pg/mL; IFNγ (IFNγ; [19]): 6 pg/mL |
| TKETETEAPAAPAEGEKPAE [Hev b 5 (109-128)] | 8.2 | 5.6 | 36.9 | 42.7 | 13.7 | 17.3 | 2.3 | 3.0 | 1.3 | 0.9 | 0.9 | 0.6 | 0 | 69 | 293 | 595 | 166 | 166 | 212 | 212 | IL-5/IFNγ ratio (IL-5; [16]): 4; IL-5/IFNγ ratio (IL-5; [17]): 6.1; IL-5/IFNγ ratio (IL-5; [20]): 5.5; IL-5 (IL-5; [20]): 1403 pg/mL; IL-5/IFNγ ratio (IL-5; [21]): 5.3; IL-5 (IL-5; [21]): 1559 pg/mL; secretion of IL-5 (in words) (IL-5): secretion of IL-5; Proliferation inducing (+) or non-inducing (−) peptide ([1]; P1 T cell line): 109-128 (−); Proliferation inducing (+) or non-inducing (−) peptide ([1]; P2 T cell line): 109-128 (+); Proliferation inducing (+) or non-inducing (−) peptide ([1]; P3 T cell line): 109-128 (+); Proliferation inducing (+) or non-inducing (−) peptide ([1]; P4 T cell line): 109-128 (+); donors whose T cells proliferated in response to the peptide ([1]; five donors with IgE reactivity to rHev b 5/MBP): three of the five donors; IFNγ (IFNγ; [14]): 0 pg/mL; IFNγ (IFNγ; [15]): 0 pg/mL; IFNγ (IFNγ; [16]): 73 pg/mL; IFNγ (IFNγ; [17]): 97 pg/mL; IFNγ (IFNγ; [20]): 257 pg/mL; IFNγ (IFNγ; [21]): 292 pg/mL; IFNγ (IFNγ; [18]): 0 pg/mL; IFNγ (IFNγ; [19]): 0 pg/mL |
